Source: patent US9561214B2, “Method of treatment using inhibitors of mitosis” (Array BioPharma Inc., priority 2008, dated 2017)

Assays:
[1] = Determination of MTD in a Phase 1 study in patients with solid tumors; type: in vivo
Text: A total of 13 patients with various solid tumors and with a median age of 66 years (range 40-79 years old) were enrolled in a human phase 1 clinical trial (see “Phase I Safety and Pharmacokinetic Study of ARRY-520 in Solid Tumors.” http://clinicaltrials.gov/ct2/show/NCT00462358, herein incorporated by reference). The solid tumors treated were breast cancer (2), colorectal cancer (2), non-small cell lung cancer (2), pancreatic cancer (2), bladder cancer, salivary gland cancer (adenoid cystic), esophageal cancer, mesothelioma cancer, and a mixed small cell lung cancer/non-small cell lung cancer. Compound 4 was provided for administration as a lyophilized powder contained in a Type 1 clear glass vial for IV use. The dose levels administered were 1.25 and 1.6 mg/m^2/day of Compound 4 on Days 1 and 2 every two weeks.

[2] = Tumor growth inhibition on different dosing schedules (HT-29), tolerability; type: in vivo; settings: 10 mg/kg IP on days 1, 2, 3, 4 and 5; female nude mice with HT-29 xenografts
Method: Female nude mice were implanted subcutaneously with 5×10^6 HT-29 cells in 100 μL PBS. Eleven to fourteen days later, tumors were measured and mice randomized into groups of seven with average tumor volume in each group of approximately 230 mm^3. Compound 4 was dissolved in normal saline immediately prior to dosing, and administered IP at a volume of 10 mL/kg. Dosing was vehicle alone on day 1 and day 2; and Compound 4 at 20 mg/kg on day 1; 20 mg/kg on days 1 and 2; 20 mg/kg on days 1 and 3; 5 mg/kg on days 1, 2 and 3; 10 mg/kg on days 1, 2 and 3; 10 mg/kg on days 1, 2, 3, 4 and 5; 10 mg/kg on days 1 and 2; and 10 mg/kg on days 1 and 3. Animal weights and tumor volumes were measured (using electronic calipers) twice a week. Tumor volume was calculated using the formula: volume=(width^2×length)/2. Dosing at 10 mg/kg on days 1, 2, 3, 4 and 5 was not tolerated (greater than 20% weight loss and/or death in some of the mice).

[3] = Determination of MTD in nude mice (HT-29 xenograft study); settings: mouse, in vivo; female nude mice with subcutaneous HT-29 xenografts; dissolved in normal saline
Method: Female nude mice were implanted subcutaneously with 5×10^6 HT-29 cells in 100 μL PBS. Ten days later, tumors were measured and mice randomized into groups of three with average tumor volume in each group of approximately 240 mm^3. Compound 4 was dissolved in normal saline immediately before dosing. It was determined that 20 mg/kg was the MTD for Compound 4. Dose volume was 10 mL/kg. Dosing was vehicle alone on day 1; and Compound 4 at 20 mg/kg on day 1; and 20 mg/kg on days 1 and 3. At various time points after dosing (24, 48, 72, 96, 120 and 144 hours), mice were euthanized by CO2 inhalation, and the tumors were harvested and immediately placed in formalin. The vehicle control group samples were collected 24 and 72 hours after dosing. The day 1 group samples were collected 24, 48, 72 and 96 hours after that dose. The day 1 and day 3 group samples were collected 72, 96, 120 and 144 hours after the first dose. Paraffin blocks of tumor tissue were prepared by standard procedures. […] Spindle structures were manually counted in three 40× areas of each sample, using a fluorescent microscope. Apoptosis was quantitated by manual counting of TUNEL positive cells, also in three 40× areas of each sample (TUNEL staining using the In Situ Cell Death Detection Kit, AP from Roche).

Compound: CON(C)C(=O)N1N=C(c2cc(F)ccc2F)S[C@@]1(CCCN)c1ccccc1 [Compound 4, (S)-2-(3-aminopropyl)-5-(2,5-difluorophenyl)-N-methoxy-N-methyl-2-phenyl-1,3,4-thiadiazole-3(2H)-carboxamide]
- MTD ([1]; IV on Days 1 and 2 every two weeks, 13 patients with solid tumors, dose levels 1.25 and 1.6 mg/m^2/day): 1.25 mg/m^2/day
- MTD, cumulative dose per cycle ([1]; IV on Days 1 and 2 every two weeks, patients with solid tumors): 2.5 mg/m^2
- DLTs ([1]; human, in vivo, iv): Grade 3 hyponatremia, anorexia, AST increase and febrile neutropenia
- tolerability of dosing schedule [2]: not tolerated
- weight loss and/or death in some of the mice [2]: greater than 20%
- MTD [3]: 20 mg/kg
